Patent US4870097A, “Pharmaceutical use of derivatives of tryptophan” (priority 1984, dated 1989)

Assays:
[1] = test system: activity of analgesic drugs; assay: Hot plate test: potentiation of analgesic drugs; format: in vivo, rats; conditions: analgesic alone i.p. (Prop 15, Oxy 50, Asa 100 mg/kg); for Positive Total X/25: 10'-60'
Method: The method is that described by Eddy et al. (J. Pharmac. Exp. Ther. 107, 385 (1953)).
Groups of five male rats having a weight of about 150 g and which have not been fasting are used.
The animals are placed on a metal plate which is on the bottom of a transparent cylinder heated to 55°±1° C. by an azeotropic boiling mixture (1:1 acetone-ethyl formate). The time which passes between the moment at which the animal is placed on the hot plate and the moment at which it licks its feet or tries to jump out of the cylinder is defined as the reaction time. The control reaction time is measured 10 and 5 minutes before the administration of the drugs and 10, 20, 30, 45, 60, 90 minutes afterwards. The animals are left on the plate for a maximum period of 30 seconds.
The response to the administration of the product is considered positive if at least a doubling of the normal reaction time is seen. The results obtained are given in Table 2 which records the groups treated, the dose administered and the stay times on the plate expressed as the number of positive responses over the number treated.

[2] = test system: analgesic activity of morphine; assay: Tail Flick Test: increase in the analgesic effect of morphine; format: in vivo, rats; conditions: for percentage variation in the latency of the pain sensation, 10' / percentage variation in the latency of the pain sensation, 20' / percentage variation in the latency of the pain sensation, 30' / percentage variation in the latency of the pain sensation, 45' / percentage variation in the latency of the pain sensation, 60' / percentage variation in the latency of the pain sensation, 90' / M(10'-90') average percentage variation: compound 10 mg/kg i.p. + morphine 2 mg/kg (row Morphine: alone); for percentage variation in the latency of the pain sensation, 10' / percentage variation in the latency of the pain sensation, 20' / percentage variation in the latency of the pain sensation, 30' / percentage variation in the latency of the pain sensation, 45' / percentage variation in the latency of the pain sensation, 60' / percentage variation in the latency of the pain sensation, 90': ± S.E.; for M(10'-90') average percentage variation: mean 10'-90'; for Potency ratio relative to morphine alone: rat, in vivo
Method: Increase in the analgesic effect of analgesic-narcotic drugs in rats in the Tail Flick Test
The method is that described by Harris et al. (J. Pharmacol. Exp. Ther. 143 (1964) 141-148).
Male rats are used which have a weight of about 150-200 g and which have not been fasting. A point is chosen on the tail and this is irradiated by a heat source (75° C.) and the time (in seconds) for which the animal remains without moving its tail is measured.
A maximum period of time under the heat source of 8 seconds is chosen after which the animal is, in any case, removed in order to avoid tissue damage. The measurement is effected before (controls) and after treatment with the drugs.
. The percentage variation is calculated for each individual animal by the following formula: [formula] The measurements are carried out 10, 20, 30, 45, 60 and 90 minutes after treatment with the analgesics.
The results obtained are given in Table 1 which records the groups treated and the doses administered, the
average percentage variations (calculated on groups of five animals) in […]

[3] = test system: guinea pig gall bladder contracted with CCK-8; assay: Anti-CCK activity on guinea pig gall bladders in vitro; format: biochemical; conditions: CCK-8 10 ng/ml, concentration antagonising 50% of contracting effect
Method: A longitudinal strip of guinea pig gall bladder is placed in a bath of Krebs for isolated organs at a temperature of 32° C. and oxygenated continuously with an oxygen-CO2 mixture (95-5 V/V).
The […] contractions are detected by means of a force transducer and recorded.
The gall bladder is contracted with the use of a CCK-8 solution at a concentration of 10 ng/ml; the antagonistic activity of the compounds of the invention towards the contracting effect of the CCK is determined with the use of different concentrations, the ED50 value, that is the concentration of the compound in mcg/ml capable of antagonising 50% of the contracting effect of the CCK, being determined.
The results obtained are set out in the following table which gives the compounds tested and the ED50 values which are calculated by the method of regression on a test of at least three experiments for each compound studied.

[4] = test system: tolerance induced by morphine; assay: Antagonism to the development of tolerance to repeated administration of morphine HCl (tail flick); format: in vivo, rats
Method: Several of the compounds of the invention were examined to determine any capacity to antagonise the development of tolerance induced by morphine. Groups of six male rats having a weight of about 200-250 were used.
At intervals of 24 hours from the first treatment (time 0), each animal (except for the control group treated with a physiological solution) received 3 mg/kg of morphine hydrochloride i.p. together with 3 mg/kg i.p. of the compounds indicated (with the exception of the group treated solely with morphine).
The determination of the threshold for the pain stimulus was effected at 15°, 30', 45' and 60' intervals from the treatment by the "tail flick" test.

Row | SMILES | percentage variation in the latency of the pain sensation, 10' [2] | percentage variation in the latency of the pain sensation, 20' [2] | percentage variation in the latency of the pain sensation, 30' [2] | percentage variation in the latency of the pain sensation, 45' [2] | percentage variation in the latency of the pain sensation, 60' [2] | percentage variation in the latency of the pain sensation, 90' [2] | M(10'-90') average percentage variation [2] | Potency ratio relative to morphine alone [2] | Anti CCK-8 activity, ED50 [3] | further results
1 | CC(=O)Oc1ccccc1C(=O)O [Acetylsalicylic acid, reference compound] |  |  |  |  |  |  |  |  |  | positive responses over the number treated, 10' [1]: 1/5; Positive Total X/25 [1]: 7; positive responses over the number treated, 20' [1]: 2/5; positive responses over the number treated, 30' [1]: 2/5; positive responses over the number treated, 45' [1]: 2/5; positive responses over the number treated, 60' [1]: 0/5
2 | O=C(N[C@@H](Cc1c[nH]c2ccccc12)C(=O)O)OCc1ccc(Br)cc1 [Compound 3] | 70.7 ± 19.7% | 90.3 ± 9.7% | 74.7 ± 16.9% | 86.2 ± 11.0% | 100.0 ± 0.0% | 53.7 ± 17.2% | 79.3% | 2.66 | 33.6 µg/mL | 
3 | O=C(N[C@@H](Cc1c[nH]c2ccccc12)C(=O)O)OCc1ccc(I)cc1 [Compound 4] | 62.8 ± 22.8% | 76.9 ± 14.4% | 85.3 ± 13.9% | 56.4 ± 18.2% | 48.1 ± 16.9% | 19.4 ± 11.1% | 58.2% | 1.95 | 48.2 µg/mL | 
4 | O=C(N[C@@H](Cc1c[nH]c2ccccc12)C(=O)O)OCc1cccc(Cl)c1 [Compound 5] | 34.5 ± 13.3% | 53.0 ± 24.8% | 62.5 ± 16.6% | 50.5 ± 17.6% | 43.7 ± 10.1% | 52.2 ± 22.2% | 50.9% | 1.71 | 23.2 µg/mL | 
5 | O=C(N[C@@H](Cc1c[nH]c2ccccc12)C(=O)O)OCc1ccc(Cl)c(Cl)c1 [Compound 6] | 68.6 ± 20.4% | 78.0 ± 17.9% | 80.4 ± 19.6% | 84.5 ± 11.4% | 76.3 ± 13.8% | 71.9 ± 15.2% | 78.6% | 2.57 | 16.1 µg/mL | 
6 | O=C(N[C@@H](Cc1c[nH]c2ccccc12)C(=O)O)OCc1ccc(C(F)(F)F)cc1 [Compound 7] | 38.3 ± 13.7% | 34.4 ± 5.7% | 44.4 ± 14.8% | 48.3 ± 14.6% | 47.2 ± 16.9% | 47.9 ± 15.4% | 43.4% | 1.45 | 108.7 µg/mL | 
7 | Cc1ccc(COC(=O)N[C@@H](Cc2c[nH]c3ccccc23)C(=O)O)cc1 [Compound 8] | 12.4 ± 4.9% | 38.4 ± 22.2% | 56.5 ± 20.3% | 48.0 ± 26.1% | 48.5 ± 21.5% | 54.4 ± 24.7% | 43.0% | 1.44 | 114.3 µg/mL | 
8 | CCc1ccc(COC(=O)N[C@@H](Cc2c[nH]c3ccccc23)C(=O)O)cc1 [Compound 9] | 46.7 ± 14.7% | 62.2 ± 16.5% | 39.6 ± 15.7% | 86.9 ± 8.0% | 46.7 ± 20.4% | 40.8 ± 22.4% | 53.8% | 1.80 | 125.4 µg/mL | 
9 | CN1CC[C@]23c4c5ccc(O)c4O[C@H]2[C@@H](O)C=C[C@H]3[C@H]1C5 [Morphine, morphine, reference compound] | 10.8 ± 4.0% | 54.2 ± 17.0% | 46.6 ± 21.0% | 41.7 ± 16.0% | 32.0 ± 17.0% | -6.4 ± 10.0% | 29.8% |  |  | percentage variation in the latency time, day 0 ([4]; day 0, 3 mg/kg i.p. + morphine HCl 3 mg/kg i.p. (row Morphine: alone)): 35.83%; percentage variation in the latency time, day 1 ([4]; day 1, 3 mg/kg i.p. + morphine HCl 3 mg/kg i.p. (row Morphine: alone)): 37.43%; percentage variation in the latency time, day 2 ([4]; day 2, 3 mg/kg i.p. + morphine HCl 3 mg/kg i.p. (row Morphine: alone)): 30.33%; percentage variation in the latency time, day 3 ([4]; day 3, 3 mg/kg i.p. + morphine HCl 3 mg/kg i.p. (row Morphine: alone)): 16.06%; percentage variation in the latency time, day 4 ([4]; day 4, 3 mg/kg i.p. + morphine HCl 3 mg/kg i.p. (row Morphine: alone)): 22.46%; percentage variation in the latency time, day 5 ([4]; day 5, 3 mg/kg i.p. + morphine HCl 3 mg/kg i.p. (row Morphine: alone)): 9.63%; percentage variation in the latency time, day 6 ([4]; day 6, 3 mg/kg i.p. + morphine HCl 3 mg/kg i.p. (row Morphine: alone)): 7.28%; percentage variation in the latency time, day 7 ([4]; day 7, 3 mg/kg i.p. + morphine HCl 3 mg/kg i.p. (row Morphine: alone)): 1.95%; regression line % Effect versus Day ([4]; days 0-7, 3 mg/kg + morphine (row Morphine: alone)): % Effect = - 5.34 Day + 38.72; day on which activity falls to 0 / inactive level is reached ([4]; from the straight lines of regression, groups C, D and E extrapolated): sixth
10 | CCCCC1C(=O)N(c2ccccc2)N(c2ccc(O)cc2)C1=O (centres unmarked) [Oxyphenylbutazone, reference compound] |  |  |  |  |  |  |  |  |  | positive responses over the number treated, 10' [1]: 2/5; Positive Total X/25 [1]: 7; positive responses over the number treated, 20' [1]: 1/5; positive responses over the number treated, 30' [1]: 2/5; positive responses over the number treated, 45' [1]: 2/5; positive responses over the number treated, 60' [1]: 0/5
11 | CCC(=O)O[C@](Cc1ccccc1)(c1ccccc1)[C@H](C)CN(C)C [Propoxyphene, reference compound] |  |  |  |  |  |  |  |  |  | positive responses over the number treated, 10' [1]: 2/5; Positive Total X/25 [1]: 11; positive responses over the number treated, 20' [1]: 2/5; positive responses over the number treated, 30' [1]: 3/5; positive responses over the number treated, 45' [1]: 3/5; positive responses over the number treated, 60' [1]: 1/5
